According to patent US20230374071A1, “COMPOSITIONS FOR INDUCING URINARY VOIDING AND DEFECATION” (Dignify Therapeutics, LLC, priority 2020, published 2023):
Converted amounts (≈) assume the structure as drawn.

Key:
[1] = Aqueous solubility of lyophilized peptide analogs (observed dissolution in Dulbecco's phosphate buffered saline and water); format: physicochemical; settings: observed dissolution in both Dulbecco's phosphate buffered saline and water; 5 mg/mL was the maximum tested
Protocol: Peptide analogs of NKA were purified to ≥95% purity. […] Compounds A, B, H, and J (SEQ ID NO: 1, 2, 8, and 10) were considered to be aqueous insoluble (<0.1 mg/mL). *Aqueous solubilities of the lyophilized peptide analogs were determined based on the observed dissolution in both Dulbecco's phosphate buffered saline and water. gc=Gly-(R-gamma-lactam)-Leu or (S)-2-((R)-3-amino)-2-oxopyrrolidin-1-yl)-4-methylpantanoyl.

[2] = target: T1, human NK2 receptor (hNK2R) (Homo sapiens, UniProt P21452); experiment: Intracellular calcium mobilization (Fluo-4 AM, FLIPR) in CHO cells expressing recombinant hNK2R; format: cell-based; settings: for EC50: calcium mobilization, CHO-hNK2 cells, agonist potency, read-out: hNK2R pEC50 (converted)
T1 construct: expressed in transfected cells; host or cells: CHO (CHO-hNK2)
T1 sequence (P21452 1-398): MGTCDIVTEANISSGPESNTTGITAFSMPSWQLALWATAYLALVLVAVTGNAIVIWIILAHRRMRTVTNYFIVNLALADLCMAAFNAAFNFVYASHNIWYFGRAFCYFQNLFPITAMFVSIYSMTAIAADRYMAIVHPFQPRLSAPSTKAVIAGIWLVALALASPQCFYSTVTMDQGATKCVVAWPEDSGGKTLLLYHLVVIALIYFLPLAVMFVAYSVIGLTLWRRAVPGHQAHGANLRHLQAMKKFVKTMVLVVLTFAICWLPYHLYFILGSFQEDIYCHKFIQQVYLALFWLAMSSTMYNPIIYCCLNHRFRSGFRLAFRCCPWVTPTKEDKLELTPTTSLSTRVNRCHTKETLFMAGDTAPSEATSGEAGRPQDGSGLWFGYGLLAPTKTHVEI
Protocol: (§1) Intracellular Calcium Mobilization: The agonist efficacy of compounds A-J at recombinant hNK2R or hNK1Rs expressed in CHO cells was assessed by measuring intracellular calcium mobilization using the calcium-sensitive dye Fluo-4 AM (MOLECULAR PROBES, EUGENE, OR, USA) and a Fluorometric Imaging Plate Reader (FLIPR, MOLECULAR DEVICES, CA, USA). CHO-hNK1 and CHO-hNK2 cells were seeded into black walled clear-bottom 384-well plates) at a density of 10,000 and 15,000 cells per well in 50 μL culture media, respectively, and grown overnight at 37° C. in a humidified CO2-incubator. Cells were washed in washing buffer using a Microplate Washer BIOTEK 384 instrument, leaving 20 μL of buffer per well after the final aspiration. Cells were then incubated at 37° C. with the cytoplasmic Ca^2+ indicator Fluo-4 AM at 2 μM in assay buffer containing 2.5 mM probenecid and 0.02% Pluronic F-127 for 45-60 min (cell loading). Cells were then washed 3 times in washing buffer using a Microplate Washer BIOTEK 384 instrument, leaving 30 μL of buffer in each well after the last wash. Loaded cell plates were transferred to the FLIPR Tetra instrument and calcium responses monitored as described below. A dual read-out FLIPR protocol was used, allowing for characterization of both agonist and antagonist profiles. For quality control, in each compound plate the signal was monitored by evaluating the responses to the reference standards (NKA and Substance P).
(§2) Twelve concentrations of each of the compounds A-J were evaluated for their ability to increase intracellular calcium levels with respect to the agonist reference standard (NKA or Substance P), and the pEC50 value was calculated. […] Concentration response curves of compounds were run in duplicate on two different occasions from the same stock solutions. Test solutions were prepared from 10 mM stock solutions in DMSO and 1 μL of each solution was stamped into V-bottom assay plates containing 49 μL assay buffer. The final concentration of DMSO was 0.5% in each well.
(§3) The results of the intracellular calcium mobilization by in vitro activation of recombinant hNK2Rs or hNK1Rs expressed in CHO cells as described above for the 10 peptide analogs A-J, is shown in Table 3 below. In addition, FIGS. 3A-3C are exemplary graphs showing stimulation of [Ca^2+] response in CHO cells expressing human NK2 or NK1 receptors by Compound A, Compound B, and Compound G, respectively. In FIGS. 3A-3C, data are expressed as % of the maximal response to substance P for NK1 receptors, or NKA for NK2 receptors. Each data point is the mean±SD from duplicate determinations.

[3] = target: T2, human NK1 receptor (hNK1R) (Homo sapiens, UniProt P25103); experiment: Intracellular calcium mobilization (Fluo-4 AM, FLIPR) in CHO cells expressing recombinant hNK1R; format: cell-based; settings: for Emax: CHO, calcium response, CHO cells, full or partial agonists, read-out: maximal response at hNK1R compared to Substance P; for EC50: calcium mobilization, CHO-hNK1 cells, agonist potency, read-out: hNK1R pEC50 (converted)
T2 construct: expressed in transfected cells; host or cells: CHO (CHO-hNK1)
Protocol: as §1, §2, §3

T2 sequence (P25103 whole entry): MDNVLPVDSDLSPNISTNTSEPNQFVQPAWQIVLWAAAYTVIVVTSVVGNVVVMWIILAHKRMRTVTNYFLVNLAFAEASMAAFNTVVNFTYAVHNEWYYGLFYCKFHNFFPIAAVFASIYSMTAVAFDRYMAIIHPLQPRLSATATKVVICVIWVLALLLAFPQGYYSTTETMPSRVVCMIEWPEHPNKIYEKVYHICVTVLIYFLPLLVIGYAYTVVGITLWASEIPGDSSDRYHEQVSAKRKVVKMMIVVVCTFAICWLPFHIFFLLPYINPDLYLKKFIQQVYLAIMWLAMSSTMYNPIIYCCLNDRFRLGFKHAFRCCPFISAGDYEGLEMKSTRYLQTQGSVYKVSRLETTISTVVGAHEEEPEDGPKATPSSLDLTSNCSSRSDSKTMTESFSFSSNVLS

CSCC[C@H](NC(=O)[C@H](CC(C)C)N1CC[C@@H](NC(=O)[C@@H](NC(=O)[C@H](Cc2ccccc2)NC(=O)[C@H](CO)NC(=O)[C@@H](N)CC(=O)O)C(C)C)C1=O)C(N)=O [Compound A, Asp-Ser-Phe-Val-gc-Met-NH2]
Aqueous solubility [1]: <100 µg/mL
solubility [1]: < 100 µg/mL
EC50 [2]: 0.676 nM
selectivity for activation of hNK2Rs vs hNK1Rs ([2]; from ratios of EC50s): > 700 fold
Emax [3]: ≥ 85%
EC50 [3]: 490 nM

CCCC[C@H](NC(=O)[C@H](CC(C)C)N1CC[C@@H](NC(=O)[C@@H](NC(=O)[C@H](Cc2ccccc2)NC(=O)[C@H](CO)NC(=O)[C@@H](N)CC(=O)O)C(C)C)C1=O)C(N)=O [Compound B, Asp-Ser-Phe-Val-gc-Nle-NH2]
Aqueous solubility [1]: <100 µg/mL
solubility [1]: < 100 µg/mL
EC50 [2]: 8.51 nM
Emax [3]: ≥ 73%
EC50 [3]: 1780 nM

CSCC[C@H](NC(=O)[C@H](CC(C)C)N1CC[C@@H](NC(=O)[C@@H](NC(=O)[C@H](Cc2ccccc2)NC(=O)[C@H](CCCCN)NC(=O)[C@@H](N)CC(=O)O)C(C)C)C1=O)C(N)=O [Compound C, Asp-Lys-Phe-Val-gc-Met-NH2]
solubility [1]: 5000 µg/mL (≈ 5.99 mM)
EC50 [2]: 0.427 nM
EC50 [3]: 53.7 nM

CCCC[C@H](NC(=O)[C@H](CC(C)C)N1CC[C@@H](NC(=O)[C@@H](NC(=O)[C@H](Cc2ccccc2)NC(=O)[C@H](CCCCN)NC(=O)[C@@H](N)CC(=O)O)C(C)C)C1=O)C(N)=O [Compound D, Asp-Lys-Phe-Val-gc-Nle-NH2]
solubility [1]: 5000 µg/mL (≈ 6.13 mM)
EC50 [2]: 3.63 nM
EC50 [3]: 479 nM

CSCC[C@H](NC(=O)[C@H](CC(C)C)N1CC[C@@H](NC(=O)[C@@H](NC(=O)[C@H](Cc2ccccc2)NC(=O)[C@H](CCCNC(=N)N)NC(=O)[C@@H](N)CC(=O)O)C(C)C)C1=O)C(N)=O [Compound E, Asp-Arg-Phe-Val-gc-Met-NH2]
solubility [1]: 5000 µg/mL (≈ 5.8 mM)
EC50 [2]: 0.195 nM
EC50 [3]: 17.4 nM

CCCC[C@H](NC(=O)[C@H](CC(C)C)N1CC[C@@H](NC(=O)[C@@H](NC(=O)[C@H](Cc2ccccc2)NC(=O)[C@H](CCCNC(=N)N)NC(=O)[C@@H](N)CC(=O)O)C(C)C)C1=O)C(N)=O [Compound F, Asp-Arg-Phe-Val-gc-Nle-NH2]
solubility [1]: 5000 µg/mL (≈ 5.92 mM)
EC50 [2]: 2.51 nM
EC50 [3]: 234 nM

CCCC[C@H](NC(=O)[C@H](CC(C)C)N1CC[C@@H](NC(=O)[C@@H](NC(=O)[C@H](Cc2ccccc2)NC(=O)[C@H](CO)NC(=O)[C@H](CC(=O)O)NC(=O)[C@@H](N)CCCCN)C(C)C)C1=O)C(N)=O [Compound G, Lys-Asp-Ser-Phe-Val-gc-Nle-NH2]
solubility [1]: 5000 µg/mL (≈ 5.54 mM)
EC50 [2]: 7.76 nM
Emax [3]: ≥ 73%
EC50 [3]: 1620 nM
